# Entries after “also recorded” stand apart in the source; their conditions may differ.
# Tests used:
# [1] = tested on: A498 cells; assay: Apoptosis/necrosis detection, Annexin V/PI flow cytometry, A498; assay type: cell-based, human
# Procedure: After incubation with 2-indolinone compounds (IC50 μM concentration; 48 and/or 72 hours), cells are washed twice with PBS and the cell pellet is suspended in Annexin V binding buffer. After this incubation, cells are incubated with FITC-conjugated Annexin V and propidium iodine staining solution for 15 minutes in the dark and at room temperature. Then, cells are analyzed by flow cytometry (Beckman coulter, Navios) (Wlodkowic, D., Skommer, J, Darzynkiewicz, Z. 2009. Flow cytometry-based apoptosis detection, Methods Mol Biol., 559, 1-14).
# [2] = tested on: general tyrosine kinase activity in A498 kidney cancer cells; assay: General tyrosine kinase activity (ELISA) in A498 cells; assay type: cell-based, human; conditions: IC50 concentration
# Procedure: (§1) Takara Universal Tyrosine Kinase Assay Kit is used to determine the effects of 11 2-indolinone compounds (Y1, Y2, Y3, Y4, Y5, Y8, […], […], Y21, Y23, 20C, 22C) on general tyrosine kinase activity in cancer cells. Cells are seeded in 6-well plates (4.10^5 cells/well) and the IC50 concentration of each selected molecule is performed to the cells for 48 or 72 hours. Cells in the control group are incubated with medium only. At the end of the incubation period, the cells in each well are washed with PBS and cells are removed from the wells using a cell scraper via 1 ml of the extraction buffer in the kit. The cell lysate is transferred to ependorf tubes and centrifuged at 10.000 g for 10 minutes at +4° C. and the supernatant is used as a sample for activity determination. After the extracts obtained from the control and experimental groups are diluted 1:25, 40 μl extracts is transferred to two wells in the 96-well plate in the kit. In addition, the standard solution in the kit is diluted according to the kit instructions and each concentration is transferred 40 μl into three wells. 10 μl of 40 mM ATP-2Na solution is added to all wells and the plate is incubated at 37° C. for 30 minutes. […] The reaction is finished by adding 100 μl of stop solution to each well and the optical density in each well is measured at 405 nm with a microplate reader (BioTek, USA). The tyrosine kinase activity in each sample is calculated from the standard curve obtained from the absorbance values of the standard solutions with the kit (Chan W Y, Lau P M, Yeung K W, Kong S K. The second generation tyrosine kinase inhibitor dasatinib induced eryptosis in human erythrocytes—An in vitro study. Toxicol Lett. 2018; 295:10-21). […]
# The effects of 11 2-indolinone compounds (Y1, Y2, Y3, Y4, Y5, Y8, Y14, Y21, Y23, 20C and 22C) having the structure of formula (5), which are prominent with their cytotoxicity in A498, MIAPaCa-2 and HCT-116 cancer cell lines and nontoxic properties in healthy cells, on general tyrosine kinase activity in cancer cells are determined.
# [3] = tested on: general tyrosine kinase activity in HCT116 colon cancer cells; assay: General tyrosine kinase activity (ELISA) in HCT-116 cells; assay type: cell-based, human; conditions: 72 hours, IC50 concentration
# Procedure: as §1, with “determination.” for “determination. After the extracts obtained from the control and experimental groups are diluted 1:25, 40 μl extracts is transferred to two wells in the 96-well plate in the kit. In addition, the standard solution in the kit is diluted according to the kit instructions and each concentration is transferred 40 μl into three wells. 10 μl of 40 mM ATP-2Na solution is added to all wells and the plate is incubated at 37° C. for 30 minutes.”
# [4] = tested on: human cancer cells; assay: MTT cell viability, human cancer cells overall; assay type: cell-based; conditions: cell line as discussed at the place
# Text: The cytotoxicity, general tyrosine kinase inhibitory effects and cell death (apoptosis/necrosis) assays of 1-benzyl-3-(1H-indol-3-ylmethylidene)-1,3-dihydro-2H-indol-2-one derivatives (Formula 5) of the present invention are studied by the following methods. […] HUVEC (human umbilical vein endothelial cell), MCF-10F (human breast epithelial cell) and Beas2b (human lung bronchial epithelial cell) cell lines have been used as healthy control cells in MTT experiments.
# Beas2b (human lung bronchiole epithelial cell) and HEK293 (renal tubule epithelium) cells used as normal cell lines were cultured in RPMI medium, and HUVEC (human umbilical cord endothelial cells) and MCF-10F (human breast epithelial cell) cells are cultured in DMEM medium containing 100 µg/ml penicillin/streptomycin. The cells, which covered 70% of the culture flask, are washed with phosphate buffer and then removed from the surface of the flask by application of trypsin-ethylenediamine tetraacetic acid (Trypsin-EDTA; 0.25%) solution, passaged, counted and seeded on appropriate plates before each experiment. Cells are treated with a total of 45 2-indolinone compounds (5) at concentrations of 0.1, 1, 5 and 10 μM. Stock compounds are prepared in 1 ml dimethylsulfoxide (DMSO) and 4 different dilutions were prepared with medium and performed to the cells. Control group cells are treated with DMSO at a similar concentration to the experimental groups.
# MTT (3-(4,5-dimethylthiazol-2-yl)-2,5-diphenyl-2H-tetrazolium bromide) colorimetric assay provides quantitation of viable cells with ongoing mitochondrial activity in culture medium. According to the standard procedure in cell culture conditions, cells are maintained in RPMI-1640 and DMEM culture media containing 10% FBS and 1% penicillin/streptomycin. The trypan blue test is used for cell counts.
# The effects of 45 2-indolinone compounds (5) on cell viability in all cancer cell lines are investigated by MTT assay. Cells are seeded in a 96-well flat bottom plate with 5000 cells in each well and 2-indolinone compounds (5) at concentrations of 0.1, 1, 5 and 10 μM are performed to the cells the next day. After 48 and/or 72 hours following treatment with 2-indolinone compounds, 50 μl of the supernatant is slowly discarded (as it was acid medium) and MTT at a concentration of 5 mg/ml is added to each well in a volume of 10 μl. After incubation for 4 hours, the formazan crystals formed in the wells are dissolved by adding 100 μl DMSO and the optical density is read at 570 nm test wavelength and 630 nm reference wavelength. Cell viability is expressed as % cell viability by comparing the absorbance of control and test wells. IC50 value is calculated from the dose-response curves prepared for each compound. In addition, the possible DMSO effect is eliminated by preparing negative control wells compatible with the amount of DMSO contained in the compounds. To understand the reaction of the compounds with MTT, cell-free (MTT+compounds) negative controls are prepared at the concentrations used (Mosmann, 1983). […] The absorbance values obtained are compared to the control and statistically evaluated by unpaired t-test using “Graphpad Prism 5.04” software. “P<0.05” is accepted as significant. When evaluating cytotoxic effects, the present inventors aim for the inventive compounds to be effective in cancer cells and ineffective in healthy cells. […]
structure (smiles),measurement,setting,value
Cc1ccc2c(c1)/C(=C/c1c[nH]c3ccccc13)C(=O)N2Cc1ccccc1 [Y3],necrosis compared to control,[1]; A498,no increase or decrease; also recorded: did not cause necrosis
same,Apoptosis rate compared to control,"[1]; A498, IC50 concentration",increased significantly
same,general tyrosine kinase activity compared to control,[2]; 48 h,significantly decreased; also recorded: decreased the general tyrosine kinase activity
O=C1/C(=C\c2c[nH]c3ccccc23)c2cc(OC(F)(F)F)ccc2N1Cc1ccccc1 [Y4],tyrosine kinase activity compared to control,[3],did not cause a significant change
same,potency/selectivity compared with sunitinib malate,[4],more potent than Sunitinib malate
Cc1ccc2c(c1)/C(=C/c1c[nH]c3ccccc13)C(=O)N2Cc1cccc(F)c1 [Y8],general tyrosine kinase activity compared to control,[2]; 72 h,did not cause a significant change

# Reference: US20260335282A1, “NOVEL 3-ARYLIDENE-2-INDOLINONE DERIVATIVES FOR THERAPEUTIC USE” (ISTANBUL UNIVERSITESI REKTORLUGU, priority 2022, published 2026)
